{"source": "EPA's ToxRefDB 2", "key": {"rat [1]": {"system": "rat", "settings": "Subchronic oral toxicity in rodents, wistar, Feed, dose end: 90 day, group: systemic"}, "dog": {"system": "dog", "settings": "Chronic toxicity, beagle, Oral, Feed, dose end: 52 week, group: systemic"}, "rat [2]": {"system": "rat", "settings": "Prenatal developmental toxicity study, wistar, Oral, Gavage/Intubation, dose end: 15 GD"}, "mouse [3]": {"system": "mouse", "settings": "Carcinogenicity, other, Oral, Feed, dose end: 18 month, group: systemic"}, "rat [4]": {"system": "rat", "settings": "Multigenerational reproductive toxicity study, Wistar, Oral, Feed, dose end: 2 generation"}, "rabbit": {"system": "rabbit", "settings": "Prenatal developmental toxicity study, new zealand white, Oral, Gavage/Intubation, dose end: 28 GD"}, "rat [5]": {"system": "rat", "settings": "Combined chronic toxicity/carcinogenicity, wistar, Oral, Feed, dose end: 2 year, group: systemic"}, "rat [6]": {"system": "rat", "settings": "Combined chronic toxicity/carcinogenicity; wistar; Oral; Diet; dose end: 104 week; group: systemic; systemic / in life observation / body weight / body weight + systemic / in life observation / food consumption / food consumption + systemic…"}, "mouse [7]": {"system": "mouse", "settings": "Subchronic oral toxicity in rodents, other, Feed, dose end: 90 day, group: systemic"}, "[8]": {"settings": "systemic / clinical chemistry / alkaline phosphatase (alp/alk) / alkaline phosphatase (alp/alk) + systemic / clinical chemistry / urea …"}, "[9]": {"settings": "systemic / hematology / erythrocyte (rbc) count differential / erythrocyte (rbc) + systemic / hematology / hematocrit (hct) / hematocrit (…"}, "[10]": {"settings": "group: developmental, systemic / in life observation / body weight / fetal weight"}, "[11]": {"settings": "group: maternal, systemic / in life observation / body weight / body weight + systemic / in life observation / body weight / body weight gain"}, "[12]": {"settings": "systemic / pathology microscopic / epididymis / dilatation + systemic / pathology microscopic / epididymis / infiltration cellular + …"}, "[13]": {"settings": "group: offspring, systemic / in life observation / body weight / offspring (pup) weight gain"}, "[14]": {"settings": "group: parental, systemic / in life observation / body weight / body weight gain"}, "[15]": {"settings": "group: developmental, developmental / developmental malformation / bone / hole(s) + developmental / developmental malformation / bone / incomplete ossification + …"}, "[16]": {"settings": "group: maternal, reproductive / reproductive performance / aborted / aborted + systemic / in life observation / body weight / body weight gain + systemic / …"}, "[17]": {"settings": "systemic / in life observation / body weight / body weight + systemic / in life observation / body weight / body weight gain + systemic / …"}, "[18]": {"settings": "systemic / clinical chemistry / cholesterol / cholesterol + systemic / pathology microscopic / liver / hypertrophy + systemic / clinical …"}}, "data": [{"smiles": "O=C(Nc1ccccc1)Nc1cnns1", "note": "[Thidiazuron]", "values": [{"measurement": "LOAEL", "setting": "rat [1]; [8]", "result": 102, "unit": "mg/kg/day"}, {"measurement": "NEL", "setting": "rat [1]; [8]", "result": 11.2, "unit": "mg/kg/day"}, {"measurement": "NOAEL", "setting": "rat [1]; [8]", "result": 34.5, "unit": "mg/kg/day"}, {"measurement": "LEL", "setting": "rat [1]; systemic / clinical chemistry / phosphorus / phosphorus", "result": 34.5, "unit": "mg/kg/day"}, {"measurement": "LOAEL", "setting": "dog; [9]", "result": 11.8, "unit": "mg/kg/day"}, {"measurement": "NOAEL", "setting": "dog; [9]", "result": 3.93, "unit": "mg/kg/day"}, {"measurement": "LEL", "setting": "dog; systemic / organ weight / spleen / absolute + systemic / organ weight / spleen / relative to body weight", "result": 11.1, "unit": "mg/kg/day"}, {"measurement": "NEL", "setting": "dog; systemic / organ weight / spleen / absolute + systemic / organ weight / spleen / relative to body weight + systemic / hematology / …", "result": 4.01, "unit": "mg/kg/day"}, {"measurement": "LEL", "setting": "rat [2]; [10]", "result": 300, "unit": "mg/kg/day"}, {"measurement": "LOAEL", "setting": "rat [2]; [10]", "result": 300, "unit": "mg/kg/day"}, {"measurement": "NEL", "setting": "rat [2]; [10]", "result": 100, "unit": "mg/kg/day"}, {"measurement": "NOAEL", "setting": "rat [2]; [10]", "result": 100, "unit": "mg/kg/day"}, {"measurement": "LEL", "setting": "rat [2]; [11]", "result": 300, "unit": "mg/kg/day"}, {"measurement": "LOAEL", "setting": "rat [2]; [11]", "result": 300, "unit": "mg/kg/day"}, {"measurement": "NEL", "setting": "rat [2]; [11]", "result": 100, "unit": "mg/kg/day"}, {"measurement": "NOAEL", "setting": "rat [2]; [11]", "result": 100, "unit": "mg/kg/day"}, {"measurement": "LOAEL", "setting": "mouse [3]; systemic / pathology microscopic / epididymis / dilatation + systemic / pathology microscopic / epididymis / infiltration cellular", "result": 86.7, "unit": "mg/kg/day"}, {"measurement": "LEL", "setting": "mouse [3]; [12]", "result": 86.7, "unit": "mg/kg/day"}, {"measurement": "NEL", "setting": "mouse [3]; [12]", "result": 26.5, "unit": "mg/kg/day"}, {"measurement": "NOAEL", "setting": "mouse [3]; [12]", "result": 26.5, "unit": "mg/kg/day"}, {"measurement": "LEL", "setting": "rat [4]; [13]", "result": 108, "unit": "mg/kg/day"}, {"measurement": "LOAEL", "setting": "rat [4]; [13]", "result": 108, "unit": "mg/kg/day"}, {"measurement": "NEL", "setting": "rat [4]; [13]", "result": 35.4, "unit": "mg/kg/day"}, {"measurement": "NOAEL", "setting": "rat [4]; [13]", "result": 35.4, "unit": "mg/kg/day"}, {"measurement": "LEL", "setting": "rat [4]; [14]", "result": 108, "unit": "mg/kg/day"}, {"measurement": "LOAEL", "setting": "rat [4]; [14]", "result": 108, "unit": "mg/kg/day"}, {"measurement": "NEL", "setting": "rat [4]; [14]", "result": 35.4, "unit": "mg/kg/day"}, {"measurement": "NOAEL", "setting": "rat [4]; [14]", "result": 35.4, "unit": "mg/kg/day"}, {"measurement": "LEL", "setting": "rabbit; [15]", "result": 125, "unit": "mg/kg/day"}, {"measurement": "LOAEL", "setting": "rabbit; [15]", "result": 125, "unit": "mg/kg/day"}, {"measurement": "NEL", "setting": "rabbit; [15]", "result": 25, "unit": "mg/kg/day"}, {"measurement": "NOAEL", "setting": "rabbit; [15]", "result": 25, "unit": "mg/kg/day"}, {"measurement": "LEL", "setting": "rabbit; [16]", "result": 125, "unit": "mg/kg/day"}, {"measurement": "LOAEL", "setting": "rabbit; [16]", "result": 125, "unit": "mg/kg/day"}, {"measurement": "NEL", "setting": "rabbit; [16]", "result": 25, "unit": "mg/kg/day"}, {"measurement": "NOAEL", "setting": "rabbit; [16]", "result": 25, "unit": "mg/kg/day"}, {"measurement": "LOAEL", "setting": "rat [5]; [17]", "result": 36.4, "unit": "mg/kg/day"}, {"measurement": "NOAEL", "setting": "rat [5]; [17]", "result": 8, "unit": "mg/kg/day"}, {"measurement": "NEL", "setting": "rat [5]; systemic / pathology microscopic / kidney / mineralization + systemic / pathology microscopic / kidney / dilatation + systemic / pathology …", "result": 105, "unit": "mg/kg/day"}, {"measurement": "LEL", "setting": "rat [6]", "result": 31.7, "unit": "mg/kg/day"}, {"measurement": "LOAEL", "setting": "rat [6]", "result": "> 31.7", "unit": "mg/kg/day"}, {"measurement": "NEL", "setting": "rat [6]", "result": 10.6, "unit": "mg/kg/day"}, {"measurement": "NOAEL", "setting": "rat [6]", "result": "≥ 31.7", "unit": "mg/kg/day"}, {"measurement": "LOAEL", "setting": "mouse [7]; systemic / clinical chemistry / cholesterol / cholesterol + systemic / pathology microscopic / liver / hypertrophy", "result": 171, "unit": "mg/kg/day"}, {"measurement": "NEL", "setting": "mouse [7]; [18]", "result": 85.2, "unit": "mg/kg/day"}, {"measurement": "NOAEL", "setting": "mouse [7]; [18]", "result": 85.2, "unit": "mg/kg/day"}, {"measurement": "LEL", "setting": "mouse [7]; systemic / clinical chemistry / cholesterol / cholesterol + systemic / pathology microscopic / liver / hypertrophy + systemic / organ weight…", "result": 171, "unit": "mg/kg/day"}]}]}
